For experiment [1], the system named is Acinetobacter baumanii, ATCC 19606. The experiment is described as follows: Broth minimum inhibitory concentration (MIC) assay of K15. It counts as cell-based, Acinetobacter baumannii. Conditions: A. baumannii; broth MIC in CAMHB, 18-24 hours. How it is done: (§1) Peptoid K15 was analyzed via a traditional broth minimum inhibitor concentration (MIC) assay against seven different ESKAPE pathogens (Acinetobacter baumanii, ATCC 19606; Enterococcus faecalis, ATCC 29212; Enterococcus faecium, ATCC 19434; Escherichia coli, ATCC 25922; Klebsiella pneumoniae, ATCC 700603; Pseudomonas aeruginosa, ATCC 27853; Staphylococcus aureus, ATCC 29213). For each of the bacterial strains screened in the ESKAPE panel, 1-3 isolated colonies were collected from a TSA plate by a flame sanitized wire loop and resuspended in 5 mL of TSB. The solutions were incubated at 37° C. for 18-24 hours. After the growth period, the turbidity was measured at 600 nm and adjusted to an optical density of 0.08-0.13 by diluting with TSB for an approximate concentration of 1×10^8 CFU/mL. Once the desired OD was achieved, 20 μL of the bacteria suspension were diluted 1:20 in 380 μL Cation Adjusted Mueller-Hinton broth (CAMHB) for a final concentration of 5×10^6 CFU/mL.
(§2) 4 μL of a 10 mM stock of K15 were diluted in […] CAMHB for each bacterial strain assayed (a total of 28 μL stock in 2.478 mL broth for ESKAPE panel). […]
(§3) The prepared plates were incubated for another 18-24 hours. Their respective absorbance at 600 nm was analyzed on a SpectraMax M5 Plate Reader. […] Absorbance at 555, 570, and 585 nm was analyzed to determine viable cells having survived treatment by the antimicrobial compound. […]

Another experiment concerns E. coli (ATCC 25922). The experiment is described as follows: PLAD assay, zone of inhibition around beads in soft agar.
Experiment [2] concerns Enterococcus faecium, ATCC 19434. The experiment is described as follows: Broth minimum inhibitory concentration (MIC) assay of K15. It counts as cell-based. Conditions: E. faecium; broth MIC in CAMHB, 18-24 hours. The method, then: as §1, §2, §3
In the next experiment the test system is ESKAPE pathogens. Briefly: Broth MIC assay of K15 against the panel of seven ESKAPE pathogens. It counts as cell-based. Conditions: seven pathogens tested. How it is done: as §1, §2, §3

≈ marks a conversion by molar mass, not a printed value.

For `CCCCCCCCCCCCCNCC(=O)N(CCN)CC(=O)N(CC(N)=O)C(C)c1ccccc1` (stereo not drawn) [K15, NTri-Nae-NPea], the MIC in experiment [1] and in experiment [2] was 25 µg/mL (≈ 48.3 µM) in each case. In addition, in the experiment with E. coli (ATCC 25922) (proof-of-concept library on PLAD linker, 14 mM TCEP, 37° C. for 18 hours), the zone of inhibition entry is listed as “largest average zone of inhibition”. In addition, in the experiment with ESKAPE pathogens, the “antimicrobial efficacy against the ESKAPE pathogens” value is on record as “modest efficacy against six of the seven pathogens tested”.

In the case of “NTri-NLys-NPea-NPea-NLys [C134mer, reference compound]”, the zone of inhibition entry in the experiment on E. coli (ATCC 25922) (PLAD linked C134mer beads, DTT, BME or TCEP at 0, 2, 6, 10, and 14 mM) is on record as “concentration dependent zones of inhibition”.

In general, MIC refers to the lowest concentration found to suppress growth. Lower therefore signals greater potency.

The record behind these values is patent publication US10851400B2, “Assay for high-throughput identification of therapeutic compounds” (priority 2016, dated 2020).
